Measured values published in US20040072694A1, “Method to inhibit ethylene responses in plants” (priority 2002, published 2004).

Tests used:
[1] = system: Patio variety tomato seedlings; assay: Tomato Epinasty Test, volatile gas treatment; assay type: in vivo; conditions: applied as a gas at 1000 ppm; ethylene 10 ppm v/v after four hours, scored sixteen hours later
Procedure: Objective: The test procedure is designed to determine the ability of an experimental compound to block the epinastic growth response induced by ethylene in tomato plants when the experimental compound is administered either as a volatile gas or as a component of a spray solution. Treatment chambers are of an appropriate size for the test plants and are airtight. Each is fitted with a reusable septum to be used for injection of ethylene. Test plants are Patio variety tomato seedlings planted two plants per three inch square plastic pot. Volatile gas treatment entails placing two pots of Patio var. tomatoes into a polystyrene 4.8L volume treatment chamber along with one-half (upper or lower section) of a 50×9 mm plastic Petri dish containing a Gelman filter pad. The appropriate amount of experimental compound, dissolved in 1.0 ml acetone, is pipetted onto the filter pad and the chamber immediately sealed. Four hours later ethylene gas equal to 10 ppm v/v final concentration is injected into the sealed chamber. Sixteen hours later the chambers are opened in an exhaust hood, allowed to air and the plants scored visually for the degree of protection against ethylene-induced epinasty conferred by the experimental compound when compared to ethylene treated and untreated controls on a scale of 0 to 10. A rating of 10 means complete protection. […]

[2] = system: ethylene receptors; assay: Banana ripening protection from ethylene; assay type: in vivo; conditions: 24 hours of exposure in 3-liter jar, then 333 microliters per liter of ethylene for 12-15 hours; banana peels
Procedure: Compounds which block the ethylene receptors can prevent bananas from ripening. Treatment of bananas with 30 nl/l of Compound 1 protected banana peels from the effects of ethylene. The bananas were treated using the following general procedure:
An ether solution of a known amount of the active compound was placed on filter paper in a 3-liter jar. The amount of ether used was without effect when applied alone on a banana contained in a 3-liter jar. The jar was sealed and the banana was removed after 24 hours of exposure. The banana was then treated with 333 microliters per liter of ethylene in a 3-liter jar for 12-15 hours. It was then observed for ripening. The minimum concentration that protected the banana was determined.

Row | minimum concentration that protected the banana [2] [nl/l] | Compound | rating of protection against ethylene-induced epinasty (scale of 0 to 10; 10 means complete protection) [1]
1 | – | OCCC1=CC1 [Compound 2, 1-(2-Hydroxyethyl)-cyclopropene] | 10
2 | 30 | OCC1=CC1 [Compound 1, 1-Hydroxymethylcyclopropene] | –
